The values below come from US11891365B2, “3-alkyl-4-amido-bicyclic [4,5,0] hydroxamic acids as HDAC inhibitors” (Valo Health, Inc., priority 2015, dated 2024).

The assay concerns the target T1, Full length human recombinant HDAC6 protein (Homo sapiens, UniProt Q9UBN7).
T1 sequence (Q9UBN7 1-1215): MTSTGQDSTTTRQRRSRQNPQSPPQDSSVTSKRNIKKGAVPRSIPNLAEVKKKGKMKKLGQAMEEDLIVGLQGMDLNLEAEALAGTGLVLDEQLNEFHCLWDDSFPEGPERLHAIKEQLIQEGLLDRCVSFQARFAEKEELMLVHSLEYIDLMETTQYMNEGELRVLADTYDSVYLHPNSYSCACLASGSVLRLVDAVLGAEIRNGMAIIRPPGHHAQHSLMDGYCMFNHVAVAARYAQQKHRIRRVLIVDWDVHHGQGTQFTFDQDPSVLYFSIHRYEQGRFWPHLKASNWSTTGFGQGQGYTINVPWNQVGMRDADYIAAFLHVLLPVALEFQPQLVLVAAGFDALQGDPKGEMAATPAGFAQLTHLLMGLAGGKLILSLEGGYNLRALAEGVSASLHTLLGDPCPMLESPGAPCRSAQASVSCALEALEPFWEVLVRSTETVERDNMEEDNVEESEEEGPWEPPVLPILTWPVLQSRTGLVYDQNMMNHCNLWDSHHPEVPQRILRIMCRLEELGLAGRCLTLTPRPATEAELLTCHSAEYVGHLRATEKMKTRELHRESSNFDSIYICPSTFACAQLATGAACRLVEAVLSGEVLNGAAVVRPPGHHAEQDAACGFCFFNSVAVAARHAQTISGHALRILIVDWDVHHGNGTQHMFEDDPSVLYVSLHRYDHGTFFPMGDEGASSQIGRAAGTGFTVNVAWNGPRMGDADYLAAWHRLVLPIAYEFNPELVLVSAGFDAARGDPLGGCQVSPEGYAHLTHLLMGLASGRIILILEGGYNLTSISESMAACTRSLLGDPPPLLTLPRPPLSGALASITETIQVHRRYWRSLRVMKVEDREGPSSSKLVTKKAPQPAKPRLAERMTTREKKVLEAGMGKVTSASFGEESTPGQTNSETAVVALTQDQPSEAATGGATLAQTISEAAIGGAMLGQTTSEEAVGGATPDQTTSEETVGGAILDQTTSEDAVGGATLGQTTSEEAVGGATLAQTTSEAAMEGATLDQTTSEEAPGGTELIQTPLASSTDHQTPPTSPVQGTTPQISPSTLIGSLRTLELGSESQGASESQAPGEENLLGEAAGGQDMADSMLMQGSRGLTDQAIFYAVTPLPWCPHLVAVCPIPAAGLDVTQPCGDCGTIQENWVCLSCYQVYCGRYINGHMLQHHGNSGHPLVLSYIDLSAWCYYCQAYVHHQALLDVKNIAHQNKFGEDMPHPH
Kind of assay: In vitro histone deacetylase assay: enzymatic HDAC6 electrophoretic mobility shift assay. It counts as biochemical. As to conditions: 1 nM enzyme, 2 μM peptide substrate RHKK(Ac)-NH2, 25° C., 12 concentrations; read-out: Inhibitory Concentration (IC50) Values against HDAC6, Activity Range. On the technique in general: In EMSA bound probe runs differently from free probe, usually more slowly.

Take `O=C(NO)c1ccc2c(c1)OCCN(C(=O)C1CC13CCCNC3)C2` (stereo not shown) [N-hydroxy-4-(5-azaspiro[2.5]octane-1-carbonyl)-2,3,4,5-tetrahydrobenzo[f][1,4]oxazepine-8-carboxamide]: the IC50 is over 500 nM.

With `O=C(NO)c1ccc2c(c1)OCCN(C(=O)C1CC13CCNCC3)C2` (stereo not shown) [N-hydroxy-4-(6-azaspiro[2.5]octane-1-carbonyl)-2,3,4,5-tetrahydrobenzo[f][1,4]oxazepine-8-carboxamide], the IC50 fell in the range of 100 to 500 nM.

`O=C(NO)c1ccc2c(c1)OCCN(C(=O)C1CCC3(CCNCC3)C1)C2` (stereo not shown) [N-hydroxy-4-(8-azaspiro[4.5]decane-2-carbonyl)-2,3,4,5-tetrahydrobenzo[f][1,4]oxazepine-8-carboxamide]: the IC50 was at most 100 nM.

For the compound `CN(CC(=O)N1CCOc2cc(C(=O)NO)ccc2C1)S(C)(=O)=O` [N-hydroxy-4-(N-methyl-N-(methylsulfonyl)glycyl)-2,3,4,5-tetrahydrobenzo[f][1,4]oxazepine-8-carboxamide], the IC50 is 100 to 500 nM.

On to `O=C(NO)c1ccc2c(c1)OCCN(C(=O)C1COC1)C2` [N-hydroxy-4-(oxetane-3-carbonyl)-2,3,4,5-tetrahydrobenzo[f][1,4]oxazepine-8-carboxamide], for which the IC50 was at most 100 nM.

In the case of `O=C(NO)c1ccc2c(c1)OCCN(C(=O)C1CCOCC1)C2` [N-hydroxy-4-(tetrahydro-2H-pyran-4-carbonyl)-2,3,4,5-tetrahydrobenzo[f][1,4]oxazepine-8-carboxamide], the IC50 was at most 100 nM.

With `O=C(NO)c1ccc2c(c1)OCC(C1CCOCC1)N(C(=O)C1CCOCC1)C2` (stereo not shown) [N-hydroxy-4-(tetrahydro-2H-pyran-4-carbonyl)-3-(tetrahydro-2H-pyran-4-yl)-2,3,4,5-tetrahydrobenzo[f][1,4]oxazepine-8-carboxamide], the IC50 was over 500 nM.

Take `O=C(NO)c1ccc2c(c1)OCC1(CC1)N(C(=O)C1CCOCC1)C2` [N-hydroxy-4-(tetrahydro-2H-pyran-4-carbonyl)-4,5-dihydro-2H-spiro[benzo[f][1,4]oxazepine-3,1′-cyclopropane]-8-carboxamide]: the IC50 is at most 100 nM.

On to `O=C(NO)c1ccc2c(c1)OCCN(C(=O)C1CCOC1)C2` (stereo not shown) [N-hydroxy-4-(tetrahydrofuran-3-carbonyl)-2,3,4,5-tetrahydrobenzo[f][1,4]oxazepine-8-carboxamide], for which the IC50 was at most 100 nM.

`CC(C)C(=O)N1CCOc2cc(C(=O)NO)ccc2C1` [N-hydroxy-4-isobutyryl-2,3,4,5-tetrahydrobenzo[f][1,4]oxazepine-8-carboxamide]: the IC50 is at most 100 nM.

In the case of `CC(C)(C)C(=O)N1CCOc2cc(C(=O)NO)ccc2C1` [N-hydroxy-4-pivaloyl-2,3,4,5-tetrahydrobenzo[f][1,4]oxazepine-8-carboxamide], the IC50 was at most 100 nM.

`O=C(NO)c1cnc2c(n1)OCCN(C(=O)C1CCOCC1)C2` [N-hydroxy-8-(tetrahydro-2H-pyran-4-carbonyl)-6,7,8,9-tetrahydropyrazino[2,3-f][1,4]oxazepine-3-carboxamide]: the IC50 is 100 to 500 nM.

With `CC(C)(C)OC(=O)N1CCC2(CC1)CC2C(=O)N1CCOc2cc(C(=O)NO)ccc2C1` (stereo not shown) [tert-butyl 1-(8-(hydroxycarbamoyl)-2,3,4,5-tetrahydrobenzo[f][1,4]oxazepine-4-carbonyl)-6-azaspiro[2.5]octane-6-carboxylate], the IC50 lay within 100 to 500 nM.

In the case of `CC(C)(C)OC(=O)N1CCC2(CC1)c1ccccc1OC2C(=O)N1CCOc2cc(C(=O)NO)ccc2C1` (stereo not shown) [tert-butyl 2-(8-(hydroxycarbamoyl)-2,3,4,5-tetrahydrobenzo[f][1,4]oxazepine-4-carbonyl)-2H-spiro[benzofuran-3,4′-piperidine]-1′-carboxylate], the IC50 is 100 to 500 nM.

As for `CC(C)(C)OC(=O)N1CCC2(CCC(C(=O)N3CCOc4cc(C(=O)NO)ccc4C3)C2)CC1` (stereo not shown) [tert-butyl 2-(8-(hydroxycarbamoyl)-2,3,4,5-tetrahydrobenzo[f][1,4]oxazepine-4-carbonyl)-8-azaspiro[4.5]decane-8-carboxylate], the IC50 was in the range of 100 to 500 nM.

For the compound `CC(C)(C)OC(=O)N1CCC2(CC1)CC(C(=O)N1CCOc3cc(C(=O)NO)ccc3C1)c1ccccc12` (stereo not shown) [tert-butyl 3-(8-(hydroxycarbamoyl)-2,3,4,5-tetrahydrobenzo[f][1,4]oxazepine-4-carbonyl)-2,3-dihydrospiro[indene-1,4′-piperidine]-1′-carboxylate], the IC50 was in the range of 100 to 500 nM.

Regarding `CC(C)(C)OC(=O)N1CCC2(CC1)OC(C(=O)N1CCOc3cc(C(=O)NO)ccc3C1)c1ccccc12` (stereo not shown) [tert-butyl 3-(8-(hydroxycarbamoyl)-2,3,4,5-tetrahydrobenzo[f][1,4]oxazepine-4-carbonyl)-3H-spiro[isobenzofuran-1,4′-piperidine]-1′-carboxylate], the IC50 lay in the range of 100 to 500 nM.

Regarding `CC(C)(C)OC(=O)N1CCC2(CCCC2C(=O)N2CCOc3cc(C(=O)NO)ccc3C2)C1` (stereo not shown) [tert-butyl 6-(8-(hydroxycarbamoyl)-2,3,4,5-tetrahydrobenzo[f][1,4]oxazepine-4-carbonyl)-2-azaspiro[4.4]nonane-2-carboxylate], the IC50 fell in the range of 100 to 500 nM.

In the case of `CC(C)(C)OC(=O)N1CC2(CC(C(=O)N3CCOc4cc(C(=O)NO)ccc4C3)CO2)C1` (stereo not shown) [tert-butyl 7-(8-(hydroxycarbamoyl)-2,3,4,5-tetrahydrobenzo[f][1,4]oxazepine-4-carbonyl)-5-oxa-2-azaspiro[3.4]octane-2-carboxylate], the IC50 is 100 to 500 nM.

With `CC(C)(C)OC(=O)N1CC2(CC(C(=O)N3CCOc4cc(C(=O)NO)ccc4C3)CS2(=O)=O)C1` (stereo not shown) [tert-butyl 7-(8-(hydroxycarbamoyl)-2,3,4,5-tetrahydrobenzo[f][1,4]oxazepine-4-carbonyl)-5-thia-2-azaspiro[3.4]octane-2-carboxylate 5,5-dioxide], the IC50 lay within 100 to 500 nM.

`CC(C)(C)OC(=O)N1CCC2(CCC(C(=O)N3CCOc4cc(C(=O)NO)ccc4C3)CC2)C1` (stereo not shown) [tert-butyl 8-(8-(hydroxycarbamoyl)-2,3,4,5-tetrahydrobenzo[f][1,4]oxazepine-4-carbonyl)-2-azaspiro[4.5]decane-2-carboxylate]: the IC50 was at most 100 nM.

`CC(C)(C)OC(=O)N1CCC2(CCC(C(=O)N3CCOc4cc(C(=O)NO)ccc4C3)CC2)CC1` [tert-butyl 9-(8-(hydroxycarbamoyl)-2,3,4,5-tetrahydrobenzo[f][1,4]oxazepine-4-carbonyl)-3-azaspiro[5.5]undecane-3-carboxylate]: the IC50 lay within 100 to 500 nM.
